Test results reported in ChEMBL document CHEMBL1201862, “PubChem BioAssay data set” (2004).
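Briefly, cells in 96-well plates were exposed to five compound concentrations for 48 h, and endpoints were estimated by linear interpolation. At the GI50, growth is halved.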 Calls of active or inactive are those of the source. Cut-off read from the data, not from the text of the source: active = GI50 up to about 1.1 µM and inactive = higher.

Legend:
Assay in all cases: inhibition of tumour cell growth, NCI panel, 48 h
A549 = system: A549
DU-145 = system: DU-145
EKVX = system: EKVX
HL-60 = system: HL-60
HOP-92 = system: HOP-92
IGROV-1 = system: IGROV-1
MDA-MB-231 = system: MDA-MB-231
MDA-MB-435 = system: MDA-MB-435
NCI-H226 = system: NCI-H226
OVCAR-4 = system: OVCAR-4
OVCAR-8 = system: OVCAR-8
PC-3 = system: PC-3
RPMI-8226 = system: RPMI-8226
RXF 393 = system: RXF 393
SF-268 = system: SF-268
SR = system: SR
T47D = system: T47D
UACC-257 = system: UACC-257
MDA-N = system: MDA-N

Measured: GI50

CC(O)[C@@]1(c2ccccc2)CC2(CCN(C)CC2)O[C@H]1C (stereo partly specified)
inactive: A549 > 100 µM | DU-145 > 100 µM | EKVX > 100 µM | HL-60 26.2 µM | HOP-92 22.2 µM | IGROV-1 > 100 µM | MDA-MB-231 > 100 µM | MDA-MB-435 > 100 µM | NCI-H226 > 100 µM | OVCAR-4 98.6 µM | OVCAR-8 > 100 µM | PC-3 > 100 µM | RPMI-8226 > 100 µM | RXF 393 > 100 µM | SF-268 > 100 µM | SR > 100 µM | T47D 33.9 µM | UACC-257 > 100 µM

O=c1[nH]c2ccc(CC(=S)N3CCN(c4ccccc4)CC3)cc2s1
inactive: DU-145 51.6 µM | EKVX 26.5 µM | HL-60 > 100 µM | IGROV-1 9.16 µM | MDA-MB-231 21.9 µM | MDA-MB-435 72.8 µM | MDA-N > 100 µM | NCI-H226 14.3 µM | OVCAR-8 14.3 µM | PC-3 18.3 µM | RPMI-8226 12.7 µM | RXF 393 18 µM | SF-268 26.1 µM | SR 19.9 µM | UACC-257 > 100 µM

O=C(O)CCCC#CCCCC(=O)O
inactive: A549 > 100 µM | DU-145 > 100 µM | EKVX > 100 µM | HOP-92 > 100 µM | IGROV-1 > 100 µM | MDA-MB-435 > 100 µM | MDA-N > 100 µM | OVCAR-4 > 100 µM | OVCAR-8 > 100 µM | PC-3 > 100 µM | RXF 393 > 100 µM | SF-268 > 100 µM | SR > 100 µM | T47D > 100 µM | UACC-257 > 100 µM

COc1cc(/C=C2\C[C@H]3[C@@H]4CC=C5C[C@@H](N6CCCC6)CC[C@]5(C)[C@H]4CC[C@]3(C)[C@H]2O)cc(OC)c1OC
inactive: A549 10.6 µM | DU-145 16.8 µM | EKVX 16.1 µM | HL-60 9.12 µM | HOP-92 12.5 µM | IGROV-1 15.9 µM | MDA-MB-231 17.5 µM | MDA-MB-435 4.45 µM | NCI-H226 21.2 µM | OVCAR-4 13.8 µM | OVCAR-8 11 µM | PC-3 13.4 µM | RPMI-8226 6.4 µM | RXF 393 7.57 µM | SF-268 3.28 µM | SR 2.63 µM | T47D 20 µM | UACC-257 15 µM
